Here are results for 10 compounds from patent publication US6825018B1, “Sorbitol dehydrogenase, gene encoding the same and use thereof” (priority 1999, dated 2004).

Common to all, as to format: biochemical, Gluconobacter oxydans G624
In assay [1] the target is T1, His-tagged SLDH (Gluconobacter oxydans, UniProt Q9KWR5). Description: SLDH activity: coenzyme dependency and active pH range (increase in NAD(P)H, absorbance at 340 nm). As to conditions: for Activity: substrate sorbitol, 25° C., coenzyme varied. As to the method: To a solution containing 0.1 ml of 50 mM NAD^+ (or NADP^+), 0.2 ml of 500 mM buffer, 10 μl of His-tagged SLDH solution (2.1 μg protein) prepared in Example 2(4) and distilled water (0.29 ml) was added to 500 mM sorbitol (0.4 ml) to start the reaction (25° C.), and increase in NADH (or NADPH) was measured by a spectrophotometer (UV-2200; Shimadzu) based on absorbance at 340 nm as an index. For the reaction solutions having pH 10.1 and pH 9.0, glycine/NaOH buffer was used, and for reaction solutions having pH 8.0 and pH 7.0, potassium phosphate buffer was used. The enzyme activity (1 unit) was defined to be an amount to generate 1 μmol of NADH (or NADPH) per minute. The molecular extinction coefficient of NAD(P)H was 6.3 mM^−1 cm^−1. The protein amount was measured with bovine serum albumin (BSA) as a standard by the Lowry method.

Assay [2] has as its target T1, His-tagged SLDH. The assay can be described thus: SLDH activity: substrate specificity. Particulars: glycine/NaOH buffer pH 10.1, coenzyme NADP+; for Activity: substrate varied.
Assay [3] concerns the target T1, His-tagged SLDH. The assay can be described thus: Confirmation of SLDH activity: reaction of purified His-tagged SLDH with sorbitol, product analysis. As to conditions: 10 mM (1.82 mg/ml) sorbitol, pH 10.1, 5 mM NADP^+, 25° C., 24 hours. As to the method:
In the same manner as in the above-mentioned (2) except that the cell-free extract to be applied was by 10 ml, the resin after His-tagged SLDH adsorption was washed 6 times, and His-tagged SLDH was eluted with 50 mM imidazole and 100 mM NaCl-containing 20 mM Tris-HCl (5 ml, pH 8.0), His-tagged SLDH was purified. The obtained His-tagged SLDH was reacted with sorbitol and the resulting product was analyzed. The composition of the reaction solution (2 ml) was 10 mM (1.82 mg/ml) sorbitol, 0.1 M glycine/NaOH buffer (pH 10.1), 5 mM NADP^+ and His-tagged SLDH 0.2 ml (41.4 μg protein) and the reaction was carried out at 25° C. for 24 hours. […] Thus, His-tagged SLDH purified by cobalt type IMAC was confirmed to be sorbitol dehydrogenase that oxidizes sorbitol and generates sorbose.

[4] abbreviates: pH 7.0, potassium phosphate buffer.
The mark [5] stands for this setting: pH 8.0, potassium phosphate buffer.

Molecules are shown by their SMILES.

T1 sequence (Q9KWR5 entry or part of it): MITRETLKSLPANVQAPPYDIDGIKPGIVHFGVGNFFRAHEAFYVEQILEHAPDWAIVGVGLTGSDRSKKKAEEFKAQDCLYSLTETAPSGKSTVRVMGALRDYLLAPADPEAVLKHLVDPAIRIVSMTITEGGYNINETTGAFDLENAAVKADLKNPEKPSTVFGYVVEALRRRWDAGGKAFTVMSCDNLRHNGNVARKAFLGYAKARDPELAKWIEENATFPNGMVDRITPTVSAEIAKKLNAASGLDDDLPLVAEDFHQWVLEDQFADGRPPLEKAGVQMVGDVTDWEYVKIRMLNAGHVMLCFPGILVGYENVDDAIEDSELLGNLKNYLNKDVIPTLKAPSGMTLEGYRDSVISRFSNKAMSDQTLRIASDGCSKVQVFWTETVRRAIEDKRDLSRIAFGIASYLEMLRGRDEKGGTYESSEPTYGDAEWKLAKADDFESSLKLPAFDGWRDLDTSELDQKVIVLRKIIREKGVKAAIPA

As for `NC(=O)c1ccc[n+]([C@@H]2O[C@H](COP(=O)([O-])OP(=O)(O)OC[C@H]3O[C@@H](n4cnc5c(N)ncnc54)[C@H](OP(=O)(O)O)[C@@H]3O)[C@@H](O)[C@H]2O)c1` [NADP^+], in assay [1] (NAD^+ versus NADP^+ as coenzyme), the “Coenzyme specificity (in words)” value is reported as “higher specificity”. The Activity in assay [1] (setting [4]) is recorded as 4.2 U/mg protein; in assay [1] (setting [5]), 22.9 U/mg protein; in assay [1] (pH 9.0, glycine/NaOH buffer), 30.0 U/mg protein; in assay [1] (pH 10.1, glycine/NaOH buffer), 130.2 U/mg protein.

Take `NC(=O)c1ccc[n+]([C@@H]2O[C@H](COP(=O)([O-])OP(=O)(O)OC[C@H]3O[C@@H](n4cnc5c(N)ncnc54)[C@H](O)[C@@H]3O)[C@@H](O)[C@H]2O)c1` [NAD^+]: the Activity in assay [1] (setting [4]) turned out to be 0.1 U/mg protein; in assay [1] (setting [5]) it was 1.2 U/mg protein; in assay [1] (pH 9.0, glycine/NaOH buffer), 3.4 U/mg protein; in assay [1] (pH 10.1, glycine/NaOH buffer), 8.1 U/mg protein.

Consider `OC[C@@H](O)C(O)[C@H](O)CO` [arabitol], for which, in assay [2], the “Use as substrate by SLDH (in words)” value is listed as “could utilize” and the Activity was 88.1 U/mg protein.

Take `OCC(O)CO` [glycerol]: in assay [2], the “Use as substrate by SLDH (in words)” value is on record as “no action” and the Activity worked out at 0 U/mg protein.

On to `O[C@H]1[C@H](O)[C@@H](O)[C@H](O)[C@@H](O)[C@H]1O` [inositol], for which, in assay [2], the “Use as substrate by SLDH (in words)” value is “no action” and the Activity is 0 U/mg protein.

On to `OC[C@@H](O)[C@@H](O)[C@H](O)[C@H](O)CO` [mannitol], for which, in assay [2], the “Use as substrate by SLDH (in words)” value was “could utilize” and the Activity was determined as 85.7 U/mg protein.

Consider `OC[C@@H](O)[C@@H](O)[C@@H](O)CO` [ribitol], for which, in assay [2], the “Use as substrate by SLDH (in words)” value is reported as “no action” and the Activity is on record as 0 U/mg protein.

In assay [2], `OC[C@@H](O)[C@@H](O)[C@H](O)[C@@H](O)CO` [sorbitol] gave an Activity of 130.2 U/mg protein. For the same compound, the “conversion efficiency (sorbitol to sorbose)” value in assay [3] (41.4 μg protein) came out at 62%. In assay [3], this compound had a sorbitol remaining of 0.70 mg/mL.

Regarding `O=C(CO)[C@H](O)[C@@H](O)[C@H](O)CO` [sorbose], the sorbose generated in assay [3] was found to be 1.12 mg/mL.

Regarding `OC[C@@H](O)[C@H](O)[C@@H](O)CO` [xylitol], in assay [2], the “Use as substrate by SLDH (in words)” value was “no action” and the Activity is recorded as 0 U/mg protein.
